Experimental data taken from EP1953147A1, “HETEROCYCLIC COMPOUND AND MEDICINAL APPLICATION THEREOF” (priority 2005, dated 2007).

Tested on: ΔG/SEAP/HCV E1E2
Assay: Effect of test substance on cell infection with HCV pseudotype virus (SEAP reporter assay in HepG2 cells)
Type: cell-based
Settings: Hepatitis C virus

Row | SMILES | IC50 [nM]
1 | COc1cc(OC)cc(-c2nn(-c3cc(N4CC[C@H](O)C4)ccc3C(F)(F)F)c(=O)c3c2CCC3)c1 [Example 9, 4-(3,5-dimethoxy-phenyl)-2-[5-((S)-3-hydroxy-pyrrolidin-1-yl)-2-trifluoromethyl-phenyl]-2,5,6,7-tetrahydro-cyclopenta[d]pyridazin-1-one] | < 100
2 | Cc1cc(C)cc(-c2nn(-c3cc(-c4cccnn4)ccc3C(F)(F)F)c(=O)c3c2CCN3)c1 [Example 10, 4-(3,5-dimethyl-phenyl)-6-(5-pyridazin-3-yl-2-trifluoromethyl-phenyl)-1,2,3,6-tetrahydro-pyrrolo[2,3-d]pyridazin-7-one] | < 100
3 | Cc1cc(C)cc(-c2nn(-c3cc(N4CC[C@H](O)C4)ccc3C(F)(F)F)c(=O)c3c2CCN3)c1 [Example 11, 4-(3,5-dimethyl-phenyl)-6-[5-((S)-3-hydroxy-pyrrolidin-1-yl)-2-trifluoromethyl-phenyl]-1,2,3,6-tetrahydro-pyrrolo[2,3-d]pyridazin-7-one] | < 100
4 | Cc1cc(C)cc(-c2nn(-c3cc(-c4cccnn4)ccc3C(F)(F)F)c(=O)c3c2CC(C)N3)c1 (stereo not shown) [Example 12, 4-(3,5-dimethyl-phenyl)-2-methyl-6-(5-pyridazin-3-yl-2-trifluoromethyl-phenyl)-1,2,3,6-tetrahydro-pyrrolo[2,3-d]pyridazin-7-one] | < 100
5 | COc1cc(C)cc(-c2nn(-c3cc(-c4cccnn4)ccc3C(F)(F)F)c(=O)c3c2CCN3)c1 [Example 13, 4-(3-methoxy-5-methyl-phenyl)-6-(5-pyridazin-3-yl-2-trifluoromethyl-phenyl)-1,2,3,6-tetrahydro-pyrrolo[2,3-d]pyridazin-7-one] | < 100
6 | COc1cc(C)cc(-c2nn(-c3cc(N4CC[C@H](O)C4)ccc3C(F)(F)F)c(=O)c3c2CCN3)c1 [Example 14, 6-[5-((S)-3-hydroxy-pyrrolidin-1-yl)-2-trifluoromethyl-phenyl]-4-(3-methoxy-5-methyl-phenyl)-1,2,3,6-tetrahydro-pyrrolo[2,3-d]pyridazin-7-one] | < 100
7 | COc1cc(C)cc(-c2nn(-c3cc(-c4cccnn4)ccc3C(F)(F)F)c(=O)c3c2CC(C)N3)c1 (stereo not shown) [Example 15, 4-(3-methoxy-5-methyl-phenyl)-2-methyl-6-(5-pyridazin-3-yl-2-trifluoromethyl-phenyl)-1,2,3,6-tetrahydro-pyrrolo[2,3-d]pyridazin-7-one] | < 100
8 | COc1cc(C)cc(-c2nn(-c3cc(N4CC[C@H](O)C4)ccc3C(F)(F)F)c(=O)c3c2CC(C)N3)c1 (stereo partly drawn) [Example 16, 6-[5-((S)-3-hydroxy-pyrrolidin-1-yl)-2-trifluoromethyl-phenyl]-4-(3-methoxy-5-methyl-phenyl)-2-methyl-1,2,3,6-tetrahydro-pyrrolo[2,3-d]pyridazin-7-one] | < 100
9 | COc1cc(OC)cc(-c2nn(-c3cc(-c4cccnn4)ccc3C(F)(F)F)c(=O)c3c2CCN3)c1 [Example 17, 4-(3,5-dimethoxy-phenyl)-6-(5-pyridazin-3-yl-2-trifluoromethyl-phenyl)-1,2,3,6-tetrahydro-pyrrolo[2,3-d]pyridazin-7-one] | < 100
10 | COc1cc(OC)cc(-c2nn(-c3cc(N4CCC(O)C4)ccc3C(F)(F)F)c(=O)c3c2CCN3)c1 (stereo not shown) [Example 18, 4-(3,5-dimethoxyphenyl)-6-[5-(3-hydroxy-pyrrolidin-1-yl)-2-trifluoromethyl-phenyl]-1,2,3,6-tetrahydro-pyrrolo[2,3-d]pyridazin-7-one] | < 100
11 | COc1cc(OC)cc(-c2nn(-c3cc(-c4cccnn4)ccc3C(F)(F)F)c(=O)c3c2CC(C)N3)c1 (stereo not shown) [Example 19, 4-(3,5-dimethoxy-phenyl)-2-methyl-6-(5-pyridazin-3-yl-2-trifluoromethyl-phenyl)-1,2,3,6-tetrahydro-pyrrolo[2,3-d]pyridazin-7-one] | < 100
12 | COc1cc(OC)cc(-c2nn(-c3cc(N4CC[C@H](O)C4)ccc3C(F)(F)F)c(=O)c3c2CC(C)N3)c1 (stereo partly drawn) [Example 20, 4-(3,5-dimethoxy-phenyl)-6-[5-((S)-3-hydroxy-pyrrolidin-1-yl)-2-trifluoromethyl-phenyl]-2-methyl-1,2,3,6-tetrahydro-pyrrolo[2,3-d]pyridazin-7-one] | < 100
13 | COc1cc(OC)cc(-c2nn(-c3cc(N4CC[C@@H](O)C4)ccc3C(F)(F)F)c(=O)c3c2CCC3)c1 [Example 21, 4-(3,5-dimethoxy-phenyl)-2-[5-((R)-3-hydroxy-pyrrolidin-1-yl)-2-trifluoromethyl-phenyl]-2,5,6,7-tetrahydro-cyclopenta[d]pyridazin-1-one] | < 100
14 | COc1cc(C)cc(-c2nn(-c3cc(N4CC[C@@H](O)C4)ccc3C(F)(F)F)c(=O)c3c2CCN3)c1 [Example 22, 6-[5-((R)-3-hydroxy-pyrrolidin-1-yl)-2-trifluoromethyl-phenyl]-4-(3-methoxy-5-methyl-phenyl)-1,2,3,6-tetrahydro-pyrrolo[2,3-d]pyridazin-7-one] | < 100
15 | COc1cc(C)cc(-c2nn(-c3cc(N4CC[C@@H](O)C4)ccc3C(F)(F)F)c(=O)c3c2CCC3)c1 [Example 23, 2-[5-((R)-3-hydroxy-pyrrolidin-1-yl)-2-trifluoromethyl-phenyl]-4-(3-methoxy-5-methyl-phenyl)-2,5,6,7-tetrahydro-cyclopenta[d]pyridazin-1-one] | < 100
16 | COc1cc(OC)cc(-c2nn(-c3cc(N4CC[C@@H](O)C4)ccc3C(F)(F)F)c(=O)c3c2CCN3)c1 [Example 24, 4-(3,5-dimethoxy-phenyl)-6-[5-((R)-3-hydroxy-pyrrolidin-1-yl)-2-trifluoromethyl-phenyl]-1,2,3,6-tetrahydro-pyrrolo[2,3-d]pyridazin-7-one] | < 100
17 | COc1cc(OC)cc(-c2nn(-c3cc(N4CCC(=O)C4)ccc3C(F)(F)F)c(=O)c3c2CCN3)c1 [Example 25, 4-(3,5-dimethoxy-phenyl)-6-[5-(3-oxo-pyrrolidin-1-yl)-2-trifluoromethyl-phenyl]-1,2,3,6-tetrahydro-pyrrolo[2,3-d]pyridazin-7-one] | < 100
18 | COC(=O)CN1CCc2c(-c3cc(OC)cc(OC)c3)nn(-c3cc(N4CC[C@H](O)C4)ccc3C(F)(F)F)c(=O)c21 [Example 26, {4-(3,5-dimethoxy-phenyl)-6-[5-((S)-3-hydroxy-pyrrolidin-1-yl)-2-trifluoromethyl-phenyl]-7-oxo-2,3,6,7-tetrahydro-pyrrolo[2,3-d]pyridazin-1-yl}-acetic acid methyl ester] | < 100
19 | COc1cc(OC)cc(-c2nn(-c3cc(N4CC[C@H](O)C4)ccc3C(F)(F)F)c(=O)c3c2CCN3CC(=O)O)c1 [Example 27, {4-(3,5-dimethoxy-phenyl)-6-[5-((S)-3-hydroxy-pyrrolidin-1-yl)-2-trifluoromethyl-phenyl]-7-oxo-2,3,6,7-tetrahydro-pyrrolo[2,3-d]pyridazin-1-yl}-acetic acid] | < 100
20 | COc1cc(OC)cc(-c2nn(-c3cc(N4CC[C@H](O)C4)ccc3C(F)(F)F)c(=O)c3c2CCN3CC(N)=O)c1 [Example 28, 2-{4-(3,5-dimethoxy-phenyl)-6-[5-((S)-3-hydroxy-pyrrolidin-1-yl)-2-trifluoromethyl-phenyl]-7-oxo-2,3,6,7-tetrahydro-pyrrolo[2,3-d]pyridazin-1-yl}-acetamide] | < 100
21 | COc1cc(OC)cc(-c2nn(-c3cc(N4CC[C@H](O)C4)ccc3C(F)(F)F)c(=O)c3c2CCN3CCO)c1 [Example 29, 4-(3,5-dimethoxy-phenyl)-1-(2-hydroxy-ethyl)-6-[5-((S)-3-hydroxy-pyrrolidin-1-yl)-2-trifluoromethylphenyl]-1,2,3,6-tetrahydro-pyrrolo[2,3-d]pyridazin-7-one] | < 100
22 | CCC(O)CN1CCc2c(-c3cc(OC)cc(OC)c3)nn(-c3cc(N4CC[C@H](O)C4)ccc3C(F)(F)F)c(=O)c21 (stereo partly drawn) [Example 30, 4-(3,5-dimethoxy-phenyl)-1-(2-hydroxy-butyl)-6-[5-((S)-3-hydroxy-pyrrolidin-1-yl)-2-trifluoromethylphenyl]-1,2,3,6-tetrahydro-pyrrolo[2,3-d]pyridazin-7-one] | < 100
23 | CNC(=O)CN1CCc2c(-c3cc(OC)cc(OC)c3)nn(-c3cc(N4CC[C@H](O)C4)ccc3C(F)(F)F)c(=O)c21 [Example 31, 2-{4-(3,5-dimethoxy-phenyl)-6-[5-((S)-3-hydroxy-pyrrolidin-1-yl)-2-trifluoromethyl-phenyl]-7-oxo-2,3,6,7-tetrahydro-pyrrolo[2,3-d]pyridazin-1-yl}-N-methyl-acetamide] | < 100
24 | COc1cc(OC)cc(-c2nn(-c3ccccc3C(F)(F)F)c(=O)c3c2CCN3)c1 [Example 32, 4-(3,5-dimethoxy-phenyl)-6-(2-trifluoromethylphenyl)-1,2,3,6-tetrahydro-pyrrolo[2,3-d]pyridazin-7-one] | 100 to 10000
25 | CCNC(=O)CN1CCc2c(-c3cc(OC)cc(OC)c3)nn(-c3cc(N4CC[C@H](O)C4)ccc3C(F)(F)F)c(=O)c21 [Example 33, 2-{4-(3,5-dimethoxy-phenyl)-6-[5-((S)-3-hydroxy-pyrrolidin-1-yl)-2-trifluoromethyl-phenyl]-7-oxo-2,3,6,7-tetrahydro-pyrrolo[2,3-d]pyridazin-1-yl}-N-ethyl-acetamide] | < 100
26 | CCCCNC(=O)CN1CCc2c(-c3cc(OC)cc(OC)c3)nn(-c3cc(N4CC[C@H](O)C4)ccc3C(F)(F)F)c(=O)c21 [Example 34, N-butyl-2-{4-(3,5-dimethoxy-phenyl)-6-[5-((S)-3-hydroxy-pyrrolidin-1-yl)-2-trifluoromethyl-phenyl]-7-oxo-2,3,6,7-tetrahydro-pyrrolo[2,3-d]pyridazin-1-yl}-acetamide] | < 100
27 | CCCCCCNC(=O)CN1CCc2c(-c3cc(OC)cc(OC)c3)nn(-c3cc(N4CC[C@H](O)C4)ccc3C(F)(F)F)c(=O)c21 [Example 35, 2-{4-(3,5-dimethoxy-phenyl)-6-[5-((S)-3-hydroxy-pyrrolidin-1-yl)-2-trifluoromethyl-phenyl]-7-oxo-2,3,6,7-tetrahydro-pyrrolo[2,3-d]pyridazin-1-yl}-N-hexyl-acetamide] | < 100
28 | COCCNC(=O)CN1CCc2c(-c3cc(OC)cc(OC)c3)nn(-c3cc(N4CC[C@H](O)C4)ccc3C(F)(F)F)c(=O)c21 [Example 36, 2-{4-(3,5-dimethoxy-phenyl)-6-[5-((S)-3-hydroxy-pyrrolidin-1-yl)-2-trifluoromethyl-phenyl]-7-oxo-2,3,6,7-tetrahydro-pyrrolo[2,3-d]pyridazin-1-yl}-N-(2-methoxy-ethyl)-acetamide] | < 100
